In ChEMBL document CHEMBL3286126, “Synthesis of novel β-carboline based chalcones with high cytotoxic activity against breast cancer cells” (Bioorg Med Chem Lett, 2014):

How the values were obtained:
Type in all cases: functional
[1] = Cytotoxicity against human MIAPaCa2 cells at 10 uM after 48 hrs by SRB assay; settings: MIA PaCa-2, 48 h
[2] = Cytotoxicity against human PLC/PRF/5 cells at 10 uM after 48 hrs by SRB assay; settings: PLC-PRF-5, 48 h
SK-OV-3 = experiment: Cytotoxicity against human SKOV3 cells at 10 uM after 48 hrs by SRB assay; settings: SK-OV-3, 48 h
DU-145 = experiment: Cytotoxicity against human DU145 cells at 10 uM after 48 hrs by SRB assay; settings: DU-145, 48 h
[3] = Cytotoxicity against human A172 cells at 10 uM after 48 hrs by SRB assay; settings: A 172, 48 h
A549 = experiment: Cytotoxicity against human A549 cells at 10 uM after 48 hrs by SRB assay; settings: A549, 48 h
MCF7 = experiment: Cytotoxicity against human MCF7 cells at 10 uM after 48 hrs by SRB assay; settings: MCF7, 48 h
[4] = Cytotoxicity against human DLD1 cells at 10 uM after 48 hrs by SRB assay; settings: DLD-1, 48 h

| Structure (SMILES) | inhibition at 10 µM [1] [%] | inhibition at 10 µM [2] [%] | inhibition at 10 µM (SK-OV-3) [%] | inhibition at 10 µM (DU-145) [%] | inhibition at 10 µM [3] [%] | inhibition at 10 µM (A549) [%] | inhibition at 10 µM (MCF7) [%] | inhibition at 10 µM [4] [%] |
| --- | --- | --- | --- | --- | --- | --- | --- | --- |
| COc1cc(C(=O)/C=C/c2nccc3c4ccccc4n(C)c23)cc(OC)c1OC | 19 | 40.1 | 37.4 | 59.5 | 38.8 | 33.8 | 28.8 | 49.5 |
| COc1ccc(C(=O)/C=C/c2nccc3c4ccccc4n(C)c23)cc1 | -0.03 | 16.9 | 37.4 | 9.1 | 0.18 | -3.88 | 8.18 | 28.2 |
| CCn1c2ccccc2c2ccnc(/C=C/C(=O)c3ccccc3)c21 | 25 | 75.1 | 33.5 | 54.2 | 80.5 | 12.5 | 39.3 | 77.6 |
| O=C(/C=C/c1nccc2c1[nH]c1ccccc12)c1ccc(F)cc1 | -4.04 | 49.9 | 8.15 | -5.2 | 16.2 | 6.73 | 9.92 | 25.6 |
| Cc1ccc(C(=O)/C=C/c2nccc3c2[nH]c2ccccc23)cc1 | 2.1 | 70.5 | 5.1 | 11.4 | 60.5 | 9.91 | 20.9 | 42.4 |
| Cn1c2ccccc2c2ccnc(/C=C/C(=O)c3ccccc3)c21 | 25.5 | 64.9 | 28.6 | 53.2 | 75.5 | 19.3 | 27.2 | 67.5 |
| O=C(/C=C/c1nccc2c1[nH]c1ccccc12)c1ccccc1 | 21.7 | 76.7 | 0.91 | 20.1 | 78.4 | 11.7 | 32.9 | 70.1 |
| O=C(/C=C/c1nccc2c1[nH]c1ccccc12)c1ccc(Cl)cc1 | -13.1 | 80.5 | 0.2 | 7.63 | 75.8 | 4.68 | 15 | 41.2 |
| CCn1c2ccccc2c2ccnc(/C=C/C(=O)c3ccc(C)cc3)c21 | 11.9 | 34.1 | 47.7 | 35 | 26.6 | 16.4 | 30 | 44.1 |
